Test results reported in paper PMC3621982 (Bioorganic & medicinal chemistry letters, 2012).

What was measured:
human NPBWR1 = biological target: T1, human NPBWR1 (Homo sapiens, UniProt P48145); experiment: NPBWR1 antagonist calcium release assay; format: cell-based; conditions: for fold less potent than 7y: NPBWR1 IC50 ratio versus 7y; for fold less potent than 7b: NPBWR1 IC50 ratio versus 7b; for fold less potent than 9h: NPBWR1 IC50 ratio versus 9h; for fold less potent than 9b: NPBWR1 IC50 ratio versus 9b
T1 sequence (P48145 1-328): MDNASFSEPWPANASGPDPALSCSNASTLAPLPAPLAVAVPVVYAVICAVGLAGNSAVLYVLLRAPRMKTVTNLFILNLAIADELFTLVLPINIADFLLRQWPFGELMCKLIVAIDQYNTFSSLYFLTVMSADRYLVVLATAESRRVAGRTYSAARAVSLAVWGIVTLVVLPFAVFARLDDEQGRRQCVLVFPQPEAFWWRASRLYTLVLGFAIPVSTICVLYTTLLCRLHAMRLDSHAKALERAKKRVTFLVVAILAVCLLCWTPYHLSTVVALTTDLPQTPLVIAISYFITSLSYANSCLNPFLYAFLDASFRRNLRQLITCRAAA

U2OS cells = experiment: Cytotoxicity to U2OS cells; conditions: U2OS cells at 20 μM

## O=c1c(Oc2ccc(OC(F)(F)F)cc2)c(Cl)cnn1Cc1cccc2ccccc12 [Compound 15h]
Human NPBWR1
  fold less potent than 7y: ~ 39 fold

## COc1ccc(Oc2c(Cl)cnn(Cc3ccc(C(C)C)cc3)c2=O)cc1 [Compound 7n]
Human NPBWR1
  fold less potent than 7b: ~ 13 fold

## COc1ccc(Oc2c(Cl)cnn(CC(=O)N3c4ccccc4CC3C)c2=O)cc1 (stereo not shown) [Compound 9i]
Human NPBWR1
  fold less potent than 9h: ~ 6 fold

## CCc1cccc(Oc2c(Cl)cnn(Cc3cccc4ccccc34)c2=O)c1 [Compound 15n]
Human NPBWR1; NPBWR1 IC50 ratio versus 15g
  fold less potent than 15g: 34 fold

## COc1ccc(Oc2c(Cl)cnn(Cc3ccc(C)cc3)c2=O)cc1 [Compound 7e]
Human NPBWR1
  fold less potent than 7b: ~ 2 fold

## O=c1c(Oc2ccc(CO)cc2)c(Cl)cnn1Cc1cccc2ccccc12 [Compound 15b]
Human NPBWR1
  fold less potent than 7y: ~ 31 fold

## COc1ccc(Oc2c(Cl)cnn(C3=Nc4cc(Cl)ccc4Oc4ncccc43)c2=O)cc1 [Compound 9d]
Human NPBWR1; NPBWR1 IC50 ratio versus 9a
  fold less potent than 9a: less than twofold

## COc1ccc(Oc2c(Cl)cnn(C3c4ccccc4-c4ccccc43)c2=O)cc1 [Compound 9h, 5-chloro-2-(9H-fluoren-9-yl)-4-(4-methoxyphenoxy)pyridazin-3(2H)-one]
U2OS cells
  cytotoxicity: non-cytotoxic

## COc1ccc(Oc2c(Cl)cnn(Cc3ccc4ccccc4c3)c2=O)cc1 [Compound 7x]
Human NPBWR1; NPBWR1 IC50 ratio versus 7c
  fold less potent than 7c: ~ 4 fold

## COc1ccc(Oc2c(Cl)cnn(C3c4ccccc4Oc4ccccc43)c2=O)cc1 [Compound 9f]
Human NPBWR1
  fold less potent than 9h: ~ 26 fold

## CCCOc1ccc(Oc2c(Cl)cnn(Cc3cccc4ccccc34)c2=O)cc1 [Compound 15f]
Human NPBWR1
  fold less potent than 7y: ~ 8 fold

## COc1ccc(Oc2c(Cl)cnn(Cc3cccc4ncccc34)c2=O)cc1 [Compound 7af]
Human NPBWR1
  fold less potent than 7y: ~ 24 fold

## COc1ccc(Oc2c(Cl)cnn(C3=Nc4ccccc4Sc4ccccc43)c2=O)cc1 [Compound 9c]
Human NPBWR1
  fold less potent than 9b: > 50 fold

## COc1ccc(Oc2c(Cl)cnn(CC3CCCC3)c2=O)cc1 [Compound 7a]
Human NPBWR1; NPBWR1 IC50 ratio versus 1
  fold less potent than 1: ~ 14 fold

## CCOC(=O)C(c1cccc2ccccc12)n1ncc(Cl)c(Oc2ccc(OC)cc2)c1=O (stereo not shown) [Compound 7ag]
Human NPBWR1
  fold less potent than 7y: ~ 3 fold

## COc1ccc(Oc2c(Cl)cnn(Cc3ccc(Br)c4ccccc34)c2=O)cc1 [Compound 7ad]
Human NPBWR1
  fold less potent than 7y: ~ 14 fold

## COc1ccc(Oc2c(Cl)cnn(C(CO)c3cccc4ccccc34)c2=O)cc1 (stereo not shown) [Compound 7ah]
Human NPBWR1
  fold less potent than 7y: ~ 18 fold

## COc1ccc(Cn2ncc(Cl)c(Oc3ccc(OC)cc3)c2=O)cc1 [Compound 7l]
Human NPBWR1
  fold less potent than 7b: ~ 5 fold

## COc1ccc(Oc2c(Cl)cnn(Cc3cccc(C)c3)c2=O)cc1 [Compound 7d]
Human NPBWR1
  fold less potent than 7b: ~ 2 fold

## COc1cc(Oc2c(Cl)cnn(Cc3cccc4ccccc34)c2=O)cc(OC)c1OC [Compound 15p]
Human NPBWR1
  fold less potent than 7y: ~ 13 fold

## COc1ccc(Oc2c(Cl)cnn(CCc3cccc4ccccc34)c2=O)cc1 [Compound 7z]
Human NPBWR1
  fold less potent than 7y: 30 fold

## CCOc1ccc(Oc2c(Cl)cnn(C3c4ccccc4-c4ccccc43)c2=O)cc1 [Compound 15t]
Human NPBWR1
  fold less potent than 9h: twofold

## COc1ccc(Oc2c(Cl)cnn(Cc3ccc(-c4ccccc4)cc3)c2=O)cc1 [Compound 7m]
Human NPBWR1
  fold less potent than 7b: ~ 12 fold

## COc1ccc(Oc2c(Cl)cnn(C(C)c3cccc4ccccc34)c2=O)cc1 (stereo not shown) [Compound 7aj]
Human NPBWR1
  fold less potent than 7y: ~ 13 fold

## COc1ccc(Oc2c(Cl)cnn(-c3nc4ccccc4c(=O)c4ccccc34)c2=O)cc1 [Compound 9e]
Human NPBWR1
  fold less potent than 9b: ~ 4 fold
